Reference: patent publication US5756510A, “Benzamide analogs useful as PARP (ADP-ribosyltransferase, ADPRT) DNA repair enzyme inhibitors” (Newcastle University Ventures Limited, priority 1994, dated 1998)
Read-outs that look alike come from different tables or passages of the source. Values belong to the compound of their own block, whether it stands above or below them.

Legend:
L1210 cells [1] = test: growth inhibition assay, alone or with temozolomide; type: cell-based, murine; conditions: Mus musculus, L1210, 48 h
Method: (§1) Again using cultures of the murine leukaemia L1210 cell line, growth inhibition experiments were carried out to assess the cytostatic effects of the compounds and clonogenic survival assays were performed to assess cytotoxicity, especially in relation to use of the compounds in conjunction with DNA damaging cytotoxic agents such as cytotoxic antitumour drugs or high energy radiation.
At this time one set of replicates would be counted using a Coulter counter (N0), and 48 hours later the remaining samples would be counted (N1). The percentage (%) growth inhibition of drug-treated samples could then be estimated. In drug combination experiments, where evidence of synergistic effects on cell growth or clonogenicity was being sought, a single, fixed concentration of a cytotoxic drug sample, e.g. temozolomide, would be taken as the control value.

L1210 cells [2] = test: clonogenic survival assay with temozolomide (TM); conditions: for DEF10 (TM): 16 hours, ± S.E.
Method: as §1
After 7-10 days colonies were stained with 0.5 mg/ml MTT and counted by eye on a gridded light box. Survival curves were plotted and typical DEF10 values obtained are hereinafter given in Table II (DEF10 being defined as the ratio of the concentration of TM that reduces survival to 10% divided by the concentration of TM that reduces survival to 10% in the presence of a fixed concentration of PARP inhibitor). Each DEF10 value in Table II represents the average ratio±S.E. (standard error) derived from the averaged 10% survival for TM alone (675±31 μM from 22 independent survival curves) divided by individual 10% survival values from at least 3 independent survival curves performed in the presence of a fixed concentration of inhibitor.
For NU1025 maximal potentiation of cytotoxicity was obtained by a concentration in the range of 50-100 μM, and was significant at doses as low as 10 μM.

[3] = tested on: DNA strand breaks in L1210 cells; test: DNA strand break assay (alkaline elution); type: cell-based, murine; conditions: for concentration above which strand breakage with TM increases significantly: 150 μM TM, 1 hour; for effect on DNA strand break levels, compound alone: 24 hour incubation
Method: as §1
All the compounds were tested for their ability to produce strand breaks when used alone.

[4] = half life of temozolomide in culture; type: physicochemical
PARP = molecular target: T1, PARP (Mus musculus, UniProt P11103); test: PARP inhibition assay ([32P]-NAD incorporation into TCA-precipitated poly(ADP-ribose) in permeabilised L1210 cells, oligonucleotide activated); type: biochemical, L1210 murine leukaemia cells
T1 construct: endogenous in cells; host or cells: L1210 murine leukaemia cells, permeabilised by hypotonic buffer and cold shock
From the text: In principle, the PARP assay used relies upon activating endogenous PARP (as hereinafter described) in cells containing exogenous [^32 P]-NAD^+ introduced therein by suspending the cells in a solution of [^32 P]-NAD^+ to which they have been rendered permeable in an initial pretreatment step. The poly(ADP-ribose) which is then synthesised by the enzyme can be precipitated by trichloracetic acid (TCA) and the amount of radio-labelled ^32 p incorporated therein measured, e.g. using a scintillation counter, to give a measure of the activity of the PARP under the particular conditions of the experiment. By repeating the experiment following the same procedure, and under the same conditions, in the presence of each compound to be tested the reduction in enzyme activity, representative of the inhibitory effect of the test compound, can then be ascertained from the reduction, if any, of the amount of [^32 P] measured in the TCA precipitated poly(ADP-ribose).
Thus, with a range of different compounds a set of comparative values for inhibitory activity can be obtained.
In practice, L1210 murine leukaemia cells were used as the source of the PARP enzyme after being rendered permeable to exogenous [^32 P]NAD by exposure to hypotonic buffer and cold shock. […] This oligonucleotide sequence snaps back on itself to form a double-stranded molecule with a single blunt end and provides an effective substrate for activation of PARP.
The experimental protocol adopted, in which a synthetic oligonucleotide as mentioned above is introduced as a specific activator of PARP, discriminates between PARP and other mono-ADP-ribosyltransferases in the cells.
The oligonucleotide having the palindromic sequence […], synthesised by conventional means, was vacuum dried and stored as pellets in a freezer. Before use, it was made up to 200 μg/ml in 10 mM Tris/HCl, pH 7.8, with each pellet being dissolved completely in […] of buffer. The solution was then heated to 60° C. in a water bath for 15 minutes, and allowed to cool slowly to ensure correct reannealing. After adding 9.5 ml of buffer, the concentration was checked by measuring the optical density of a diluted sample at 260 nm. The main solution was then diluted to a concentration of 200 μg/ml and stored in 500 μl aliquots in a freezer, ready for use.
The L1210 cells used as the source of the PARP enzyme were maintained as a suspension culture in RPMI medium+10% foetal bovine serum+glutamine and antibiotics (penicillin and streptomycin). HEPES and sodium bicarbonate were also added, and the cells were seeded in 100 ml of medium such that there would be a concentration of approximately 8×10^5 /ml at the time of carrying out an assay.
(§2) The solubility of the compound was then checked by adding a quantity of the DMSO solution to a quantity of the isotonic buffer, in the required final proportions that were to be used in carrying out the assay, and after an interval the solution was examined under a microscope for any signs of crystals forming.
A desired quantity of the cells, ascertained by counting with a haemocytometer, was then centrifuged (1500 rpm in a "Europa" model 24M centrifuge for 5 minutes), the supernatant removed, and the pellets obtained were resuspended in 20 ml Dul A at 4° C. before centrifuging again at 1500 rpm and 4° C. After again removing the supernatant, the cells were resuspended at a concentration of 3×10^7 cells/ml in ice cold hypotonic buffer and left for 30 minutes on ice. Nine volumes were then added of ice cold isotonic buffer, and the cells, now rendered permeable to exogenous NAD^+, were then used within the next hour for carrying out an assay.

[5] = solubility check of test compound in assay buffer (DMSO solution added to isotonic buffer, microscope); type: physicochemical
From the text: as §2, with “The compounds being tested were generally made up as a concentrated solution in DMSO (Dimethyl sulphoxide). The” for “The”

in vitro = conditions: mouse, l1210 cells
Method: as §1

L1210 cells [6] = test: clonogenic survival assay, gamma ray irradiation; type: cell-based, murine; conditions: 200 μM
Method: In other clonogenic survival assays gamma ray irradiation was used to damage the cells. Typically, L1210 cells (3 ml, 4×10^3 /ml in plastic bijoux bottles) were irradiated at 4° C. with varying doses of gamma rays in the presence or absence of 10 mM 3AB or 200 μM NU1057 and a final concentration of 2% DMSO. The cells were then incubated at 37° C. for 2 hours in the continued presence or absence of PARP inhibitor prior to seeding for colony formation.

L1210 cells [7] = test: repair of potentially lethal damage (PLD) after gamma ray irradiation; type: cell-based, murine; conditions: 8 Gray gamma ray; 10 mM 3AB or 200 μM NU1025
Method: Repair of potentially lethal damage (PLD) occurs when cells are held in stationary-phase following initiation of PLD prior to allowing cell division to take place. In further typical experiments, L1210 cells were allowed to repair gamma ray PLD in the presence or absence of 3AB or NU1025 as follows. L1210 cells were maintained in culture until they had attained stationary phase (>10^6 cells/ml). They were diluted to […] in conditioned medium from stationary-phase cultures to prevent further cell division. Replicate 2 ml samples of cells in plastic bijoux were held on ice prior to and immediately following 8 Gray gamma ray irradiation. 1 ml of 3x final concentration of compounds 3AB or NU1025 made up in conditioned medium from stationary cultures was added (to give final concentrations of 10^6 cells/ml in 1% DMSO ±10 mM 3AB or 200 μM NU1025) and the cells were incubated at 37° C. for 0, 2 or 4 hours prior to resuspending in drug-free medium and seeding for colony formation. Unirradiated stationary phase cultures incubated at 37° C. for 0, 2 or 4 hours with 1% DMSO ±10 mM 3AB or 200 μM NU1025 were used as appropriate controls for determining relative cell survival. In the absence of PARP inhibitor cell survival increased with time allowed for PLD repair to take place. […]

[8] = 10 μM, read-out: % Inhibition (PARP)
[9] = 30 μM, read-out: % Inhibition (PARP)
[10] = read-out: IC50 INHIBITOR + 100 μM TM (growth inhibition)
[11] = read-out: IC50 INHIBITOR ALONE (growth inhibition)

T1 sequence (P11103 whole entry): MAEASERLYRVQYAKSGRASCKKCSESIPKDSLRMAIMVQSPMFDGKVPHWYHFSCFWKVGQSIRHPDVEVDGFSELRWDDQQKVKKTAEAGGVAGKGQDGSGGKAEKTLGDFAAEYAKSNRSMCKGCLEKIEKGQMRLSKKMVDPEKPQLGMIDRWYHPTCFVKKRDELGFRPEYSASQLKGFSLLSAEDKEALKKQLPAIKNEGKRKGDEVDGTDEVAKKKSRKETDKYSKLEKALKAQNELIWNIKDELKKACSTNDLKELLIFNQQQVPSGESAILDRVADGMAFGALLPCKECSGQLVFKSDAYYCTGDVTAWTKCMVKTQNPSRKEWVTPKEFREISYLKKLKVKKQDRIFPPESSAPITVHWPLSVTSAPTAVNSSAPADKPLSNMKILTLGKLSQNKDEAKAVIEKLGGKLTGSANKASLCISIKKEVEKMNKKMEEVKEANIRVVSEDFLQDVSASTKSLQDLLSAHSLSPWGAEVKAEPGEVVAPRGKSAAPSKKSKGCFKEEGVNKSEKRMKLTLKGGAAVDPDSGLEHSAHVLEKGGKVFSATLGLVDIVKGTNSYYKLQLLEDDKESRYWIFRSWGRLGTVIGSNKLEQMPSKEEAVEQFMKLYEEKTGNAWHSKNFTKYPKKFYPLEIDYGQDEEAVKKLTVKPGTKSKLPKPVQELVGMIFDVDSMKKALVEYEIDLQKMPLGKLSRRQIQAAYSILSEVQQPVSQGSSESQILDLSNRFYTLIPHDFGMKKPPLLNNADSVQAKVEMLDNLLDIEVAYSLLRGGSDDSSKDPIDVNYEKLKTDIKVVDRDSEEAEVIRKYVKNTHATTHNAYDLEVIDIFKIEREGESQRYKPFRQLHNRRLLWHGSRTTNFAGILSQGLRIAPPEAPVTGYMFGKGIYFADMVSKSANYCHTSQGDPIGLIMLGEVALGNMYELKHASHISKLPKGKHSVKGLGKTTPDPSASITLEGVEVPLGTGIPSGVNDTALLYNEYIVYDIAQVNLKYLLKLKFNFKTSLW

SMILES: Cn1nnc2c(C(N)=O)ncn2c1=O [TM, temozolomide]
IC50 (L1210 cells [1]; read-out: IC50 of TM alone (inhibition of cell growth)): 361 ± 25 µM
IC50 (L1210 cells [2]; Mus musculus, L1210, 16 h, read-out: LD50 of TM alone): 251 ± 13 µM
IC90 (L1210 cells [2]; Mus musculus, L1210, 16 h, read-out: concentration of TM alone that reduces survival to 10%): 675 ± 31 µM
cytotoxicity at 150 µM (L1210 cells [2]; Mus musculus, L1210, read-out: reduction of survival): ~30%
minimal effective concentration ([3]; Mus musculus, L1210, 1 h, read-out: lowest TM level with detectable changes in DNA strand break levels): 150 µM
rate of elution (DNA strand breakage) in words ([3]; TM, 1 hour treatment): concentration-dependent increase in the rate of elution
half-life [4]: ~40 min

inhibition at 10 µM (PARP; [8]): 15%
inhibition at 30 µM (PARP; [9]): 39%
insolubility at assay concentration ([5]; 100 μM): insol.
SMILES: CCCCCCOc1cccc(C(N)=O)c1 [NU1043, 3-hexyloxybenzamide]

SMILES: NC(=O)c1ccccc1 [BENZAMIDE, benzamide]
IC50 (L1210 cells [1]; [10]): 840 ± 120 µM
IC50 (L1210 cells [1]; [11]): 2500 ± 300 µM
DEF10 (TM) (L1210 cells [2]; 1 mM inhibitor): 4.0 ± 0.7
DEF10 (TM) (L1210 cells [2]; 3 mM inhibitor): 6.9 ± 0.2
CC50 at 24 h (in vitro): 6000 ± 1500 µM
concentration above which strand breakage with TM increases significantly [3]: above 3 mM
effect on DNA strand break levels, compound alone ([3]; 20 mM): no significant effect on DNA strand break levels

inhibition at 10 µM (PARP; [8]): 26%
insolubility at assay concentration ([5]; 30 μM): insol.
insolubility at assay concentration ([5]; 100 μM): insol.
SMILES: NC(=O)c1cccc(OCc2ccc([N+](=O)[O-])cc2)c1 [NU1007, 3-(4-nitrobenzyloxy)benzamide]

inhibition at 10 µM (PARP; [8]): 23%
insolubility at assay concentration ([5]; 30 μM): insol.
insolubility at assay concentration ([5]; 100 μM): insol.
SMILES: NC(=O)c1cccc(OC/C=C/c2ccccc2)c1 [NU1050, 3-(Cinnamyloxy)benzamide]

IC50 (PARP): 0.23 µM
PARP inhibitory activity in words (PARP): potent PARP inhibitors
inhibition at 10 µM (PARP; [8]): 92%
SMILES: O=c1[nH]c(-c2ccc([N+](=O)[O-])cc2)nc2c(O)cccc12 [NU1057, 8-Hydroxy-2-(4-nitrophenyl)quinazolin-4-one]
potentiation of gamma ray cytotoxicity in words (L1210 cells [6]): significant potentiation of gamma ray cytotoxicity
DEF10 (gamma ray cytotoxicity) (L1210 cells [6]; 2% DMSO, 2 hours at 37° C.): 1.1

SMILES: Cc1nc2c(O)cccc2c(=O)[nH]1 [NU1025, 8-Hydroxy-2-methylquinazolin-4-[3H]-one]
IC50 (L1210 cells [1]; [10]): 40 µM
IC50 (L1210 cells [1]; [11]): 410 µM
DEF10 (TM) (L1210 cells [2]; 10 μM inhibitor): 2.0 ± 0.2
DEF10 (TM) (L1210 cells [2]; 100 μM inhibitor): 5.1 ± 0.7
effect on PLD repair in words (L1210 cells [7]): blocked this repair
CC50 at 24 h (in vitro): 1600 ± 100 µM
effect on DNA strand break levels, compound alone ([3]; 1 mM): no significant effect on DNA strand break levels

inhibition at 10 µM (PARP; [8]): 26%
insolubility at assay concentration ([5]; 30 μM): insol.
insolubility at assay concentration ([5]; 100 μM): insol.
SMILES: CCCCCCCOc1cccc(C(N)=O)c1 [NU1044, 3-heptyloxybenzamide]

SMILES: NC(=O)c1cccc(N)c1 [3-aminobenzamide]
inhibition at 10 µM (PARP; [8]): 36%
inhibition at 30 µM (PARP; [9]): 63%
inhibition at 100 µM (PARP; 100 μM, read-out: % Inhibition (PARP)): 79%
IC50 (L1210 cells [1]; [10]): 2500 ± 100 µM
IC50 (L1210 cells [1]; [11]): 6700 ± 200 µM
DEF10 (TM) (L1210 cells [2]; 1 mM inhibitor): 2.4 ± 0.3
DEF10 (TM) (L1210 cells [2]; 5 mM inhibitor): 4.1 ± 0.4
DEF10 (TM) (L1210 cells [2]; 5 mM inhibitor, listed as 3AB): about 4
effect on PLD repair in words (L1210 cells [7]): blocked this repair
CC50 at 24 h (in vitro): 14000 ± 1000 µM
concentration above which strand breakage with TM increases significantly [3]: > 5 mM
effect on DNA strand break levels, compound alone ([3]; 20 mM): no significant effect on DNA strand break levels

PARP inhibitory activity in words (PARP): some PARP inhibitory activity
insolubility at assay concentration ([5]; 10 μM): insol.
insolubility at assay concentration ([5]; 30 μM): insol.
insolubility at assay concentration ([5]; 100 μM): insol.
SMILES: NC(=O)c1cccc(OCC2CCCCC2)c1 [NU1008, 3-(cyclohexylmethyloxy)benzamide]

inhibition at 10 µM (PARP; read-out: % Inhibition (PARP), 10 μM): 20%
inhibition at 30 µM (PARP; read-out: % Inhibition (PARP), 30 μM): 52%
insolubility at assay concentration ([5]; 100 μM): insol.
SMILES: NC(=O)c1cccc(OCc2ccc(F)cc2)c1 [NU1015, 3-(4-Fluorobenzyloxy)benzamide]

inhibition at 10 µM (PARP; [8]): 33%
insolubility at assay concentration ([5]; 30 μM): insol.
insolubility at assay concentration ([5]; 100 μM): insol.
SMILES: N#Cc1ccc(COc2cccc(C(N)=O)c2)cc1 [NU1037, 3-(4-cyanobenzyloxy)benzamide]

inhibition at 10 µM (PARP; [8]): 21%
inhibition at 30 µM (PARP; [9]): 40%
insolubility at assay concentration ([5]; 100 μM): insol.
SMILES: NC(=O)c1cccc(OCc2cccc([N+](=O)[O-])c2)c1 [NU1017, 3-(3-Nitrobenzyloxy)benzamide]
